Where “and” joins values, the source holds several entries; their conditions need not be identical. Equal values may be shown once. Read-outs that look alike come from different tables or passages of the source. No end group written: not given here.
Experiments:
HLA-A*0101 = HLA-A*0101 (Homo sapiens, UniProt P04439, A114D/A174V/A182V/D101N/D185E/E176A/E190D/L180R/Q94H/R68K/S129P/T187R/V100A/V91M/W191G); experiment: biochemical; format: binding; conditions: Binding affinity to A*0101 (expressed as an IC50)
HLA-A*2902 = HLA-A*2902 (Homo sapiens, UniProt P04439, A270S/D101N/D185E/E176V/E277Q/E87Q/F33T/G231S/H175R/I121M/I218V/I322F/K168Q/L300P/L318F/M331R/P208A/P217A/Q86L/T323A/T345S/V100A/V358M); experiment: MHC molecular binding / Capture assay, IC50: A*2902
HLA-A*3002 = HLA-A*3002 (Homo sapiens, UniProt P04439, D101N/D140H/D185E/E176R/F33S/G80R/H175R/K168Q/Q94H/R138E/R41S/V100E); experiment: biochemical; format: binding
HLA-A*2301 = HLA-A*2301 (Homo sapiens, UniProt P04439, D101N/D140Y/D185E/E176V/E190D/F33S/G103R/G107R/H175R/I119L/I121M/I306V/K168Q/K335N/L105A/L300P/N151K/N90K/P307H/Q86E/Q94H/R106L/R138H/R89G/T104I/T345S/V100E/W191G/Y123F); experiment: biochemical; format: binding
HLA-A*2402 = HLA-A*2402 (Homo sapiens, UniProt P04439, D101N/D140Y/D185E/E176V/E190D/F33S/G103R/G107R/I119L/I121M/I306V/K335N/L105A/L180Q/L300P/N151K/N90K/Q86E/Q94H/R106L/R138H/R89G/T104I/T345S/V100E/W191G/Y123F); experiment: MHC molecular binding / Capture assay, IC50: A*2402
[1] = Binding affinity to A*2902 (expressed as an IC50)
[2] = Binding affinity to A*3002 (expressed as an IC50)

Compound | IC50 (HLA-A*0101) | IC50 (HLA-A*2902) | IC50 (HLA-A*3002) | IC50 (HLA-A*2902; [1]) | IC50 (HLA-A*3002; [2]) | IC50 (HLA-A*2301) | IC50 (HLA-A*2402)
ETRHYNYSLY | 445 nM | 5.46 µM | 29 nM | – | – | – | –
CC(C)C[C@H](NC(=O)CNC(=O)[C@@H](NC(=O)[C@H](CC(N)=O)NC(=O)[C@@H](NC(=O)[C@H](CC(C)C)NC(=O)[C@H](CCCCN)NC(=O)[C@H](CCC(=O)O)NC(=O)[C@H](CC(C)C)NC(=O)[C@@H](N)[C@@H](C)O)[C@@H](C)O)[C@@H](C)O)C(=O)N[C@@H](Cc1ccc(O)cc1)C(=O)O | 77 nM and 23 nM | 0.991 µM | 92 nM | 5.5 µM | – | – | –
VSSIFISFY | 144 nM | – | – | 1.8 µM | 55 nM | – | –
RTDILDLWVY | 85 nM | 13.4 µM | 360 nM | – | – | – | –
KTDQRSEVY | 84 nM and 41 nM | 200 µM | 1170 nM | – | – | – | –
LTDLRLSCVY | 45 nM | 1.78 µM | 613 nM | – | – | – | –
LTDIEITCVY | 12 nM and 33 nM | 0.54 µM | 80 nM | – | – | – | –
C[C@H](NC(=O)[C@H](CCC(N)=O)NC(=O)[C@@H](N)CCCNC(=N)N)C(=O)N[C@@H](CCCCN)C(=O)N[C@@H](CCC(N)=O)C(=O)N[C@@H](Cc1c[nH]cn1)C(=O)N[C@H](C(=O)N[C@@H](CS)C(=O)N[C@@H](Cc1ccc(O)cc1)C(=O)O)[C@@H](C)O | > 135000 nM | – | – | 155 µM | 108 nM | – | –
ITDIILECVY | 1.8 nM | 7.66 µM | 505 nM | – | – | – | –
CC(C)C[C@H](NC(=O)[C@H](CC(=O)O)NC(=O)[C@H](CC(C)C)NC(=O)[C@@H](NC(=O)[C@H](Cc1ccc(O)cc1)NC(=O)[C@H](CCC(=O)O)NC(=O)[C@H](CCCCN)NC(=O)[C@H](CC(C)C)NC(=O)[C@@H](NC(=O)[C@@H]1CCCN1)[C@@H](C)O)C(C)C)C(=O)N[C@@H](Cc1ccc(O)cc1)C(=O)O | 426 nM | – | – | 0.805 µM | – | – | –
YSDIRELRHY | 14 nM | 1.14 µM | 740 nM | – | – | – | –
KYDYYDYSVY | 186000 nM | 5.75 µM | 11 nM | – | – | – | –
RTAKQHTCY | 5650 nM | 130 µM | 346 nM | – | – | – | –
QTEQATSNY | 14 nM | 119 µM | 3250 nM | – | – | – | –
CC[C@H](C)[C@H](N)C(=O)N[C@@H](CO)C(=O)N[C@@H](CCC(=O)O)C(=O)N[C@@H](Cc1ccc(O)cc1)C(=O)N[C@@H](CCCNC(=N)N)C(=O)N[C@@H](Cc1c[nH]cn1)C(=O)N[C@@H](Cc1ccc(O)cc1)C(=O)N[C@@H](CC(N)=O)C(=O)N[C@@H](Cc1ccc(O)cc1)C(=O)O | 25 nM | – | – | – | 32 nM | > 23600 nM | –
QNADKNFLY | 3810 nM | – | – | 0.024 µM | 663 nM | – | –
ITKILYQSNPY | > 10100 nM | 64.9 µM | – | – | – | – | –
TLGPGPGTGLY | 350 nM | – | – | 1.32 µM | 7.4 nM | – | –
TLEKGPGPGLY | 13 nM | – | – | 2.04 µM | 40 nM | – | –
CC[C@H](C)[C@H](NC(=O)[C@@H](NC(=O)[C@@H]1CCCN1C(=O)[C@H](Cc1c[nH]cn1)NC(=O)[C@H](CO)NC(=O)[C@H](Cc1ccc(O)cc1)NC(=O)[C@@H](N)CC(C)C)[C@@H](C)CC)C(=O)N[C@@H](CC(C)C)C(=O)NCC(=O)N[C@@H](Cc1ccccc1)C(=O)O | 3170 nM | – | – | – | – | 5.4 nM | 2.6 nM
CC[C@H](C)[C@H](NC(=O)[C@H](CC(=O)O)NC(=O)[C@H](CCC(N)=O)NC(=O)[C@@H](N)CCCNC(=N)N)C(=O)N[C@@H](CC(C)C)C(=O)N[C@@H](CC(=O)O)C(=O)N[C@@H](CC(C)C)C(=O)N[C@@H](Cc1c[nH]c2ccccc12)C(=O)N[C@H](C(=O)N[C@@H](Cc1ccc(O)cc1)C(=O)O)C(C)C | 9000 nM | – | – | 13.9 µM | 95 nM | – | –
CC(C)C[C@H](NC(=O)[C@H](CC(=O)O)NC(=O)[C@H](CCC(N)=O)NC(=O)[C@@H](N)[C@@H](C)O)C(=O)N[C@H](C(=O)N[C@@H](CCC(N)=O)C(=O)N[C@@H](CCC(=O)O)C(=O)N[C@@H](CCCCN)C(=O)N[C@@H](Cc1ccc(O)cc1)C(=O)O)C(C)C | 57 nM | 33.3 µM | 3800 nM | – | – | – | –
LTEYVLDLY | 6 nM and 8 nM | 0.941 µM | 81 nM | – | – | – | –
EYDHYCYSLY | 110000 nM | 0.799 µM | 77 nM | – | – | – | –
RTETPTLQDY | 11 nM and 40 nM | 1.99 µM | – | – | – | – | –
YSDVRKYRYY | 19 nM | 0.849 µM | 794 nM | – | – | – | –
KTRYYDYSVY | 2960 nM | 87.8 µM | 0.71 nM | – | – | – | –

From US20060079453A1, “Hla binding peptides and their uses” (priority 2002, published 2006)
